Consider 14 compounds from patent US20210300924A1, “5-[6-[[3-(4,5,6,7-TETRAHYDROPYRAZOLO[4,3-C]PYRIDIN-1-YL)AZETIDIN-1-YL]METHYL]MORPHOLIN-4-YL]QUINOLINE-8-CARBONITRILE DERIVATIVES AND SIMILAR COMPOUNDS AS TLR7-9 ANTAGONISTS FOR TREATING SYSTEMIC LUPUS ERYTHEMATOSUS” (Hoffmann-La Roche Inc., priority 2018, published 2021).

One may read the IC20 as the point of the concentration-response curve where the effect stands at 20%. Higher therefore signals weaker potency.

One data set has as its target T1, TLR9 (Homo sapiens, UniProt Q9NR96).
T1 sequence (Q9NR96 26-1032): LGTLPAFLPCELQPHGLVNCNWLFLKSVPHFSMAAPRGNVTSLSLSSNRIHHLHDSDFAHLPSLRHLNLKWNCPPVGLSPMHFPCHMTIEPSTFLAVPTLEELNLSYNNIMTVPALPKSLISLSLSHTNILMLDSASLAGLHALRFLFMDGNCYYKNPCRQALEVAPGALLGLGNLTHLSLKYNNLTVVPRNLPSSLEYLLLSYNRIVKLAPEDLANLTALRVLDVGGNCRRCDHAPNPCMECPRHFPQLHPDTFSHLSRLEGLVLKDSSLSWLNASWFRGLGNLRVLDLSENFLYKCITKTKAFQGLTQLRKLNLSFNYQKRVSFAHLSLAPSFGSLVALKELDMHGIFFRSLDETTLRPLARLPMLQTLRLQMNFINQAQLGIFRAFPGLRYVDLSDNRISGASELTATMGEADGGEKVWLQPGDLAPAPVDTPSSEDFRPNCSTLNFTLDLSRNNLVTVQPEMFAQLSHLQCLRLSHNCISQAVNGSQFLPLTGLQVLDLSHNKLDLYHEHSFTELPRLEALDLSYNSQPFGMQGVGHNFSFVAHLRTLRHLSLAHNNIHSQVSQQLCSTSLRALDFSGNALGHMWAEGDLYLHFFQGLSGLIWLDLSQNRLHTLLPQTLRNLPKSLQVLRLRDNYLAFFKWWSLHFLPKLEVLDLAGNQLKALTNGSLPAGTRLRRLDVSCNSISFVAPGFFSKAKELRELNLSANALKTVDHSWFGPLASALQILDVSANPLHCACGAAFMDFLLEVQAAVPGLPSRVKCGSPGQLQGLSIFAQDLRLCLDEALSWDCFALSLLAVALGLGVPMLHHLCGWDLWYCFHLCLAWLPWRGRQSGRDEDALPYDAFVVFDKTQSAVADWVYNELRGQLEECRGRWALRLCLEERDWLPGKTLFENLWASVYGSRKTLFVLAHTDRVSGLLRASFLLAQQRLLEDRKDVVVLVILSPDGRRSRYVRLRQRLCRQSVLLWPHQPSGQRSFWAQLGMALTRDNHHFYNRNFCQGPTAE
In words: Human PBMC cell-based assay. The note with it: CpG ODN 2216 stimulation, overnight, cytokine readout, read-out: hPBMC/TLR9 IC50. Also on record: endogenous in cells; host or cells: human PBMC from healthy donor whole blood. An excerpt: Human PBMC Cell-Based Assay
Unlike the HEK reporter cell lines, human peripheral blood mononuclear cell (PBMC) represents primary human immune cells in blood mainly consisting of lymphocytes, monocytes, and dendritic cells. These cells express TLR7, TLR8, or TLR9, and therefore are natural responders to respective ligand stimulation. Upon activation of these TLRs, PBMCs secrete similar cytokines and chemokines in vitro and in vivo, and therefore the in vitro potency of a TLR7/8/9 antagonist in human PBMC is readily translatable to its pharmacodynamics response in vivo.
Human peripheral blood mononuclear cells (PBMC) were isolated from freshly-drawn lithium-heparinized (Lithium Heparin Plus blood Collection tube, BD Vacutainer®) healthy donor whole blood by density gradient (Ficoll-Paque™ PLUS, GE Healthcare life Sciences). Briefly, […] was diluted with 25 mL PBS (without Ca^2+, Mg^2+) in a 50 mL conical tube with porous barrier (Leucosep tube, Greiner bio-one), where 15.5 mL Ficoll-Paque was under laid after spinning. Tubes were centrifuged for 20 minutes at 800×g (1946 rpm) with the brake in the off position, and PBMC were collected from the buffy coat. Cells were then washed twice in PBS, and red blood cells were lysed by suspension in 2 mL (Red Blood Cell Lysis Buffer, Alfa Aesar) for 5-10 minutes at room temperature. After a final wash in PBS, PBMC were resuspended at a final concentration of 2×10^6 cells/mL in RPMI-1640 media with GlutaMAX™ (Gibco) supplemented with 10% Fetal Bovine Serum (Sigma) and plated at 150 μL/well (3×10^5 cells/well) in tissue culture treated round bottom 96-well plates (Corning Incorporated). Antagonist compounds (compounds of this invention) solubilized and serial diluted in 100% DMSO were added in duplicate to cells to yield a final concentration of 1% DMSO (v/v). PBMC were incubated with antagonist compounds for 30 minutes at 37° C., 5% CO2 before adding various TLR agonist reagents in 48 μL complete media per well as follows (final concentrations indicated): CpG ODN 2216 (InvivoGen) at […] for TLR9, ORN 06/LyoVec (InvivoGen) at 1 μg/mL for TLR8 and R848 (InvivoGen) at 1 μg/mL for TLR7 and TLR8. PBMC were incubated overnight at 37° C. with 5% CO2. Cell culture supernatants were collected, and levels of various human cytokines were assessed by Luminex assay (ProcartaPlex™ Multiplex Immunoassay, Invitrogen) or ELISA procedure according to the manufacturer's recommended protocol (eBioscience, ThermoFisher Scientific). Viability of the cells was also checked with Cell Viability Assay (CellTiter Glo® Luminescent Cell Viability Assay, Promega).

The target in the next data set is T2, hERG channel (Homo sapiens, UniProt Q12809).
T2 construct: expressed in transfected cells; host or cells: CHO (Chinese hamster ovary), CHOhERG
In words: hERG channel inhibition assay (patch-clamp, CHOhERG cells). It is filed as cell-based. Conditions: for IC50 / IC20: CHOhERG cells, whole-cell patch-clamp; for IC20: human, CHO cells stably expressing hERG (CHOhERG cells); for hERG IC20/TLR7 IC50 / hERG IC20/TLR8 IC50 / hERG IC20/TLR9 IC50: safety ratio, >30 suggests sufficient window. On the procedure: hERG Channel Inhibition Assay:
The hERG K^+ channels were cloned in humans and stably expressed in a CHO (Chinese hamster ovary) cell line. CHOhERG cells were used for patch-clamp (voltage-clamp, whole-cell) experiments. Cells were stimulated by a voltage pattern to activate hERG channels and conduct hERG currents (rapid delayed outward rectifier potassium current of the hERG channel). After the cells were stabilized for a few minutes, the amplitude and kinetics of IKhERG were recorded at a stimulation frequency of 0.1 Hz (6 bpm). Thereafter, the test compound was added to the preparation at increasing concentrations. For each concentration, an attempt was made to reach a steady-state effect, usually, this was achieved within 3-10 min at which time the next highest concentration was applied. The amplitude and kinetics of IKhERG are recorded in each concentration of the drug which were compared to the control values (taken as 100%). (references: Redfern W S, Carlsson L, Davis A S, Lynch W G, MacKenzie I, Palethorpe S, Siegl P K, Strang I, Sullivan A T, Wallis R, Camm A J, Hammond T G. 2003; Relationships between preclinical cardiac electrophysiology, clinical QT interval prolongation and torsade de pointes for a broad range of drugs: evidence for a provisional safety margin in drug development. Cardiovasc. Res. 58:32-45, Sanguinetti MC, Tristani-Firouzi M. 2006; hERG potassium channels and cardiac arrhythmia. Nature 440:463-469, Webster R, Leishman D, Walker D. 2002; Towards a drug concentration effect relationship for QT prolongation and torsades de pointes. Curr. Opin. Drug Discov. Devel. 5:116-26).
On the technique in general: Block of hERG is tested as a sign of cardiac risk.

T2 sequence (Q12809 whole entry): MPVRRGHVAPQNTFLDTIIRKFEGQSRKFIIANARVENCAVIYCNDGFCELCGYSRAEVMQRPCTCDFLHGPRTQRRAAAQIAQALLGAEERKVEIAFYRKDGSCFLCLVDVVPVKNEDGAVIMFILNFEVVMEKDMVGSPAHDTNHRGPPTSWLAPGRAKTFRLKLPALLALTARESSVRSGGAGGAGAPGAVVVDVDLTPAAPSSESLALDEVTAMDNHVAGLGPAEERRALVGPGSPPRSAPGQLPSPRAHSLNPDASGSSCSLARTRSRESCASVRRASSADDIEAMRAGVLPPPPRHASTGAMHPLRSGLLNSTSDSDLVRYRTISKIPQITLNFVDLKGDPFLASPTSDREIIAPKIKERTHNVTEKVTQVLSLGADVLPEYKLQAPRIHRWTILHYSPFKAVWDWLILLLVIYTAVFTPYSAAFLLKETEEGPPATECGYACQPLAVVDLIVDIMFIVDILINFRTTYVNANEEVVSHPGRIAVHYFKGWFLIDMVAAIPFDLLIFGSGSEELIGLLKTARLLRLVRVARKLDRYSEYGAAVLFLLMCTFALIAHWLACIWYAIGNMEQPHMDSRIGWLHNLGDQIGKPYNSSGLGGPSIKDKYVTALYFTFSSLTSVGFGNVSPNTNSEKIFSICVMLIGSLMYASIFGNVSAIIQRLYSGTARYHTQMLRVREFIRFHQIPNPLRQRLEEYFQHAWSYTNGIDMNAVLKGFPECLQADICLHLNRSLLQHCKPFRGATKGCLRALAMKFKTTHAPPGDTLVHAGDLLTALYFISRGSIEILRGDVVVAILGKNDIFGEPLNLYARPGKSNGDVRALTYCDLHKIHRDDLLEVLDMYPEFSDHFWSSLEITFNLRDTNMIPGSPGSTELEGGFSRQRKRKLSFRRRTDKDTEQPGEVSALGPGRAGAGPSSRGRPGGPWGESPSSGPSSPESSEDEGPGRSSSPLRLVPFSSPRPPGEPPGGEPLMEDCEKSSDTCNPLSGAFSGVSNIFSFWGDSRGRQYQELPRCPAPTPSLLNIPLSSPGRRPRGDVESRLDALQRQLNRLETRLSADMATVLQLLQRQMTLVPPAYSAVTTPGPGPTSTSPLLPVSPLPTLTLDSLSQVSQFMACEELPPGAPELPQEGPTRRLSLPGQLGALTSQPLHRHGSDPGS

In the case of `CCN1CCc2cn(C3CN(C[C@H]4CN(c5ccc(C#N)c6ncccc56)C[C@@H](C)O4)C3)nc2C1` [Example 7, 5-[(2S,6R)-2-[[3-(6-ethyl-5,7-dihydro-4H-pyrazolo[3,4-c]pyridin-2-yl)azetidin-1-yl]methyl]-6-methyl-morpholin-4-yl]quinoline-8-carbonitrile], the IC50 at TLR9 worked out at 195 nM.
The same measure, in the same setting: with `C[C@@H]1Cc2nn(C3CN(C[C@H]4CN(c5ccc(C#N)c6ncccc56)C[C@@H](C)O4)C3)cc2CN1` [Example 17, 5-[(2R,6S)-2-methyl-6-[[3-[(6R)-6-methyl-4,5,6,7-tetrahydropyrazolo[4,3-c]pyridin-2-yl]azetidin-1-yl]methyl]morpholin-4-yl]quinoline-8-carbonitrile] the figure was 113 nM.
On to `C[C@@H]1CN(c2ccc(C#N)c3ncccc23)C[C@H](CN2CC(n3cc4c(n3)CCNC4)C2)O1` [Example 2, 5-[(2R,6S)-2-methyl-6-[[3-(4,5,6,7-tetrahydropyrazolo[4,3-c]pyridin-2-yl)azetidin-1-yl]methyl]morpholin-4-yl]quinoline-8-carbonitrile], for which, at hERG channel, the IC50 was over 20000 nM, the IC20 was over 10000 nM, the “hERG IC20/TLR7 IC50” value is reported as over 403.5 and the “hERG IC20/TLR8 IC50” value is recorded as over 538.4. Besides, the “hERG IC20/TLR9 IC50” value on hERG channel is over 151.6.
`C[C@@H]1CN(c2ccc(C#N)c3ncccc23)C[C@H](CN2CC(n3ncc4c3[C@H](C)NCC4)C2)O1` (single isomer, unassigned) [Example 32]: the IC50 on TLR9 was 145 nM.
For `C[C@@H]1CN(c2ccc(C#N)c3ncccc23)C[C@H](CN2CC(n3ncc4c3CCN[C@@H]4C)C2)O1` [Example 20, 5-[(2R,6S)-2-methyl-6-[[3-[(4R)-4-methyl-4,5,6,7-tetrahydropyrazolo[4,3-c]pyridin-1-yl]azetidin-1-yl]methyl]morpholin-4-yl]quinoline-8-carbonitrile], on TLR9, the IC50 was 97 nM.
Turning to `C[C@@H]1Cc2cnn(C3CN(C[C@H]4CN(c5ccc(C#N)c6ncccc56)C[C@@H](C)O4)C3)c2CN1` (single isomer, unassigned) [Example 28], the IC50 at TLR9 stood at 214 nM.
Still for that read-out and setting: next, `Cc1c2c(nn1C1CN(C[C@H]3CN(c4ccc(C#N)c5ncccc45)C[C@@H](C)O3)C1)CCN(C)C2` [Example 15, 5-[(2S,6R)-2-[[3-(3,5-dimethyl-6,7-dihydro-4H-pyrazolo[4,3-c]pyridin-2-yl)azetidin-1-yl]methyl]-6-methyl-morpholin-4-yl]quinoline-8-carbonitrile]: 110 nM.
As to `C[C@@H]1CN(c2ccc(C#N)c3ncccc23)C[C@H](CN2CC(n3ncc4c3[C@@H](C)NCC4)C2)O1` (single isomer, unassigned) [Example 31], the IC50 on TLR9 turned out to be 235 nM.
The same measure, in the same setting: with `C[C@@H]1CN(c2ccc(C#N)c3ncccc23)C[C@H](CN2CC(n3cc4c(n3)[C@H](C)NCC4)C2)O1` (single isomer, unassigned) [Example 34] the figure was 202 nM.
As for `C[C@@H]1CN(c2ccc(C#N)c3ncccc23)C[C@H](CN2CC(n3cc4c(n3)CCN[C@H]4C)C2)O1` [Example 23, 5-[(2R,6S)-2-methyl-6-[[3-[(4S)-4-methyl-4,5,6,7-tetrahydropyrazolo[4,3-c]pyridin-2-yl]azetidin-1-yl]methyl]morpholin-4-yl]quinoline-8-carbonitrile], the IC50 on TLR9 was 143 nM.
In the case of `C[C@@H]1CN(c2ccc(C#N)c3ncccc23)C[C@H](CN2CCC(n3ncc4c3CCNC4)CC2)O1` [Example 35, 5-[(2R,6S)-2-methyl-6-[[4-(4,5,6,7-tetrahydropyrazolo[4,3-c]pyridin-1-yl)-1-piperidyl]methyl]morpholin-4-yl]quinoline-8-carbonitrile], on hERG channel, the IC50 was over 20000 nM, the IC20 is over 10000 nM, the “hERG IC20/TLR7 IC50” value is reported as over 1924.5 and the “hERG IC20/TLR8 IC50” value is over 397.8. In addition, the “hERG IC20/TLR9 IC50” value at hERG channel is over 121.4.
With `C[C@@H]1CN(c2ccc(C#N)c3ncccc23)C[C@H](CN2CCC(n3cc4c(n3)CCNC4)CC2)O1` [Example 36, 5-[(2R,6S)-2-methyl-6-[[4-(4,5,6,7-tetrahydropyrazolo[4,3-c]pyridin-2-yl)-1-piperidyl]methyl]morpholin-4-yl]quinoline-8-carbonitrile], on hERG channel, the IC50 was over 20000 nM, the IC20 was found to be 10000 nM, the “hERG IC20/TLR7 IC50” value was 566.6 and the “hERG IC20/TLR8 IC50” value was found to be 246.7. The “hERG IC20/TLR9 IC50” value at hERG channel was 180.7.
For `C[C@@H]1CN(c2ccc(C#N)c3ncccc23)C[C@H](CN2CC(n3ncc4c3CCNC4)C2)O1` [Example 1, 5-[(2R,6S)-2-methyl-6-[[3-(4,5,6,7-tetrahydropyrazolo[4,3-c]pyridin-1-yl)azetidin-1-yl]methyl]morpholin-4-yl]quinoline-8-carbonitrile] the same measures were over 20000 nM, over 10000 nM, over 1023.8, over 584.4 and over 174.0.
Consider `C[C@@H]1CN(c2ccc(C#N)c3ncccc23)C[C@H](CN2CC(n3cc4c(n3)CNC4)C2)O1` [Example 11, 5-[(2S,6R)-2-[[3-(5,6-dihydro-4H-pyrrolo[3,4-c]pyrazol-2-yl)azetidin-1-yl]methyl]-6-methyl-morpholin-4-yl]quinoline-8-carbonitrile], for which, on hERG channel, the IC50 is over 20000 nM, the IC20 is over 10000 nM, the “hERG IC20/TLR7 IC50” value was over 602.4 and the “hERG IC20/TLR8 IC50” value is over 531.9. The “hERG IC20/TLR9 IC50” value at hERG channel is listed as over 204.5.
